This passage reports T/C results from PubChem BioAssay AID200 (DTP/NCI, 2004).

In this assay the test system is B6C3F1 mice, B16 melanoma ip, median survival T/C. The assay is described as follows: NCI In Vivo Anticancer Drug Screen. Data for tumor model B16 Melanoma (intraperitoneal) in B6C3F1 mice. The settings on record: endpoint: median survival time, higher = longer survival. A digest of the protocol: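 Readout: survival or tumor size in treated mice relative to vehicle controls (T/C). Model uses transplantable tumors grown in mice.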

Where [1] appears, read: dose: 3.12 mg/kg/injection, schedule: Q01DX009 (ip), vehicle: saline with Tween-80.
Where [2] appears, read: dose: 6.25 mg/kg/injection, schedule: Q01DX009 (ip), vehicle: saline with Tween-80.
The mark [3] stands for this setting: dose: 12.5 mg/kg/injection, schedule: Q01DX009 (ip), vehicle: saline with Tween-80.
The mark [4] stands for this setting: dose: 25.0 mg/kg/injection, schedule: Q01DX009 (ip), vehicle: Klucel (hydroxypropylcellulose) (HPC).
Setting [5] is: dose: 25.0 mg/kg/injection, schedule: Q01DX009 (ip), vehicle: saline with Tween-80.
[6] abbreviates: dose: 50.0 mg/kg/injection, schedule: Q01DX009 (ip), vehicle: Klucel (hydroxypropylcellulose) (HPC).
The mark [7] stands for this setting: dose: 50.0 mg/kg/injection, schedule: Q01DX009 (ip), vehicle: saline with Tween-80.
Where [8] appears, read: dose: 100.0 mg/kg/injection, schedule: Q01DX009 (ip), vehicle: Klucel (hydroxypropylcellulose) (HPC).
[9] abbreviates: dose: 200.0 mg/kg/injection, schedule: Q01DX009 (ip), vehicle: Klucel (hydroxypropylcellulose) (HPC).
[10] abbreviates: dose: 400.0 mg/kg/injection, schedule: Q01DX009 (ip), vehicle: Klucel (hydroxypropylcellulose) (HPC).
Where [11] appears, read: dose: 12.5 mg/kg/injection, schedule: Q01DX009 (ip), vehicle: Klucel (hydroxypropylcellulose) (HPC).
Where [12] appears, read: dose: 100.0 mg/kg/injection, schedule: Q01DX009 (ip), vehicle: saline with Tween-80.
[13] abbreviates: dose: 200.0 mg/kg/injection, schedule: Q01DX009 (ip), vehicle: saline with Tween-80.
The mark [14] stands for this setting: dose: 1.5 mg/kg/injection, schedule: Q01DX009 (ip), vehicle: saline with Tween-80.
The mark [15] stands for this setting: dose: 12.0 mg/kg/injection, schedule: Q01DX009 (ip), vehicle: saline with Tween-80.
[16] abbreviates: dose: 24.0 mg/kg/injection, schedule: Q01DX009 (ip), vehicle: saline with Tween-80.

“And” between values parts separate entries of the source, which are not always exact repeats. Equal entries are not always repeated. Toxic doses and inconclusive results are not listed.

Take `ClC1C(Cl)C(Cl)C(Cl)C(Cl)C1Cl` (stereo unspecified): the T/C was 88 % of control and 90 % of control under setting [1]; 109 % of control and 91 % of control under setting [2]; 107 % of control under setting [3]; 100 % of control under setting [4]; 92 % of control and 97 % of control under setting [5]; 100 % of control under setting [6]. Besides, the T/C is, setting by setting: under setting [7], 93 % of control; under setting [8], 105 % of control; under setting [9], 111 % of control; under setting [10], 107 % of control.
On to `O=c1ncccn1[C@@H]1O[C@H](CO)[C@H](O)C1O` (stereo partly specified), for which the T/C is, setting by setting: (dose: 25.0 mg/kg/injection, schedule: Q01DX009 (ip), vehicle: saline) 122 % of control; (dose: 50.0 mg/kg/injection, schedule: Q01DX009 (ip), vehicle: saline) 116 % of control and 107 % of control; (dose: 100.0 mg/kg/injection, schedule: Q01DX009 (ip), vehicle: saline) 122 % of control; (dose: 200.0 mg/kg/injection, schedule: Q01DX009 (ip), vehicle: saline) 120 % of control and 122 % of control; (dose: 400.0 mg/kg/injection, schedule: Q01DX009 (ip), vehicle: saline) 180 % of control.
On to `CN(C)CCCOc1nc2c(c(=O)n(C)c(=O)n2C)n1C` (tested in a mixture with another compound), for which the T/C by setting is: (dose: 6.25 mg/kg/injection, schedule: Q01DX009 (ip), vehicle: Klucel (hydroxypropylcellulose) (HPC)) 90 % of control; under setting [11], 111 % of control; under setting [4], 102 % of control; under setting [6], 107 % of control.
As to `C[PH+](C)C.C[PH+](C)C.[Au]`, the T/C is, setting by setting: (dose: 0.31 mg/kg/injection, schedule: Q01DX009 (ip), vehicle: Klucel (hydroxypropylcellulose) (HPC)) 115 % of control; (dose: 0.62 mg/kg/injection, schedule: Q01DX009 (ip), vehicle: Klucel (hydroxypropylcellulose) (HPC)) 117 % of control; (dose: 1.25 mg/kg/injection, schedule: Q01DX009 (ip), vehicle: Klucel (hydroxypropylcellulose) (HPC)) 114 % of control; (dose: 2.5 mg/kg/injection, schedule: Q01DX009 (ip), vehicle: Klucel (hydroxypropylcellulose) (HPC)) 112 % of control.
`Oc1ccc(/C=N/N=C/c2ccc(O)c(O)c2)cc1O`: the T/C under setting [5] is 100 % of control, the T/C under setting [7] was 102 % of control, the T/C under setting [12] is 99 % of control and the T/C under setting [13] was 97 % of control.
For the compound `O=C(Nc1ccccc1)c1c(O)[nH]c(=O)[nH]c1=O`, the T/C is 103 % of control under setting [3]; 110 % of control and 100 % of control under setting [5]; 114 % of control and 115 % of control under setting [7].
On to `O=C1NC(=O)C2(CCc3ccc(N(CCCl)CCCl)cc32)N1` (stereo unspecified), for which the T/C runs as follows: under setting [14], 122 % of control; (dose: 6.25 mg/kg/injection, schedule: Q01DX009 (oral), vehicle: saline with Tween-80) 100 % of control; under setting [15], 157 % of control; (dose: 12.5 mg/kg/injection, schedule: Q01DX009 (oral), vehicle: saline with Tween-80) 115 % of control and 108 % of control; under setting [16], 202 % of control; (dose: 25.0 mg/kg/injection, schedule: Q01DX009 (oral), vehicle: saline with Tween-80) 109 % of control and 105 % of control. For the same compound, the T/C runs as follows: (dose: 48.0 mg/kg/injection, schedule: Q01DX009 (ip), vehicle: saline with Tween-80) 236 % of control; (dose: 50.0 mg/kg/injection, schedule: Q01DX009 (oral), vehicle: saline with Tween-80) 121 % of control and 104 % of control; (dose: 100.0 mg/kg/injection, schedule: Q01DX009 (oral), vehicle: saline with Tween-80) 109 % of control and 117 % of control; (dose: 200.0 mg/kg/injection, schedule: Q01DX009 (oral), vehicle: saline with Tween-80) 117 % of control and 101 % of control; (dose: 400.0 mg/kg/injection, schedule: Q01DX009 (oral), vehicle: saline with Tween-80) 109 % of control.
Take `CCCCCCCCCCCCCCCCNc1cccc2ccccc12`: the T/C runs as follows: under setting [3], 96 % of control; under setting [5], 95 % of control; under setting [7], 94 % of control and 97 % of control; under setting [12], 92 % of control.
Take `OCC1OC(n2cnc3c(NO)ncnc32)C(O)C1O` (stereo unspecified): the T/C runs as follows: under setting [11], 101 % of control and 105 % of control; under setting [4], 93 % of control and 100 % of control; under setting [6], 96 % of control and 98 % of control; under setting [8], 97 % of control and 101 % of control; under setting [9], 91 % of control and 95 % of control; under setting [10], 86 % of control and 87 % of control.
`CC(C)NC(=O)OCc1c(COC(=O)NC(C)C)c(-c2ccc(Cl)c(Cl)c2)n2c1CC(OC(=O)CN(C)C)C2` (stereo unspecified): the T/C (dose: 10.0 mg/kg/injection, schedule: Q01DX009 (ip), vehicle: distilled water + Tween-80) is 152 % of control and 153 % of control; the T/C (dose: 20.0 mg/kg/injection, schedule: Q01DX009 (ip), vehicle: distilled water + Tween-80) was 152 % of control and 168 % of control; the T/C (dose: 40.0 mg/kg/injection, schedule: Q01DX009 (ip), vehicle: distilled water + Tween-80) is 174 % of control and 190 % of control.
For the compound `O=C(CNC(=O)OCc1ccccc1)NCC(=O)NC(Cc1c[nH]c2ccccc12)C(=O)O` (stereo unspecified), the T/C is 97 % of control (dose: 50.0 mg/kg/injection, schedule: Q01DX009 (ip), vehicle: suspension in saline); 109 % of control and 117 % of control and 88 % of control (dose: 100.0 mg/kg/injection, schedule: Q01DX009 (ip), vehicle: suspension in saline); 91 % of control and 99 % of control (dose: 200.0 mg/kg/injection, schedule: Q01DX009 (ip), vehicle: suspension in saline); 88 % of control and 92 % of control and 107 % of control (dose: 400.0 mg/kg/injection, schedule: Q01DX009 (ip), vehicle: suspension in saline).
Consider `Cc1cc(Nc2ccc3c(c2)OCO3)c2cc3c(cc2n1)OCO3`, for which the T/C is 105 % of control under setting [4] and 101 % of control under setting [6].
With `COC1/C=C\C=C(/C)C(=O)NC2=CC(=O)C(NCCCl)=C(CC(C)CC(OC)C(O)C(C)/C=C(/C)C1OC(N)=O)C2=O` (stereo unspecified), the T/C by setting is: (dose: 3.0 mg/kg/injection, schedule: Q01DX009 (ip), vehicle: DMSO) 109 % of control and 103 % of control; (dose: 6.0 mg/kg/injection, schedule: Q01DX009 (ip), vehicle: DMSO) 112 % of control and 106 % of control; (dose: 12.0 mg/kg/injection, schedule: Q01DX009 (ip), vehicle: DMSO) 112 % of control and 123 % of control; (dose: 24.0 mg/kg/injection, schedule: Q01DX009 (ip), vehicle: DMSO) 109 % of control and 120 % of control.
For the compound `COc1ccc2c(c1OC(C)=O)-c1cc(O)cc3c1C(C2)N(C(=O)CN(CCCl)CCCl)CC3` (stereo unspecified), the T/C by setting is: under setting [1], 164 % of control; under setting [2], 153 % of control; under setting [3], 207 % of control.
As to `CCCCCCCCCCCCCCCCN(CC)CC`, the T/C (dose: 2.5 mg/kg/injection, schedule: Q01DX009 (ip), vehicle: saline) was 99 % of control; the T/C (dose: 5.0 mg/kg/injection, schedule: Q01DX009 (ip), vehicle: saline) is 97 % of control; the T/C (dose: 10.0 mg/kg/injection, schedule: Q01DX009 (ip), vehicle: saline) is 90 % of control.
Turning to `O=S(=O)(c1ccccc1)N1CN2CCN(C2)C1`, the T/C is, setting by setting: under setting [3], 96 % of control; under setting [5], 94 % of control; under setting [7], 108 % of control; under setting [12], 112 % of control; under setting [13], 119 % of control; (dose: 400.0 mg/kg/injection, schedule: Q01DX009 (ip), vehicle: saline with Tween-80) 122 % of control.
As for `c1ccc2c(c1)[As]=c1ccccc1=[As]2` (stereo unspecified), the T/C (dose: 0.75 mg/kg/injection, schedule: Q01DX009 (ip), vehicle: saline with Tween-80) is 105 % of control; the T/C under setting [14] is 112 % of control and 103 % of control; the T/C (dose: 3.0 mg/kg/injection, schedule: Q01DX009 (ip), vehicle: saline with Tween-80) was 107 % of control and 108 % of control; the T/C (dose: 6.0 mg/kg/injection, schedule: Q01DX009 (ip), vehicle: saline with Tween-80) is 115 % of control and 98 % of control; the T/C under setting [15] is 122 % of control; the T/C under setting [16] is 87 % of control.
Consider `CC(O)CNCCNc1ccc(NCCNCC(C)O)c2c1C(=O)c1c(O)ccc(O)c1C2=O` (stereo unspecified), for which the T/C (dose: 1.0 mg/kg/injection, schedule: Q01DX009 (ip), vehicle: distilled water + Tween-80) was 169 % of control; the T/C (dose: 2.0 mg/kg/injection, schedule: Q01DX009 (ip), vehicle: distilled water + Tween-80) was 194 % of control; the T/C (dose: 4.0 mg/kg/injection, schedule: Q01DX009 (ip), vehicle: distilled water + Tween-80) was 221 % of control; the T/C (dose: 8.0 mg/kg/injection, schedule: Q01DX009 (ip), vehicle: distilled water + Tween-80) is 180 % of control.
